What was measured:
Scn [1] = biological target: Scn; parameters: method as in Li et al., 2015; conditions: ref Li et al., 2015; cited from earlier work
Scn [2] = biological target: T1, Scn (Homo sapiens, UniProt P80188); assay: Fe-ENT/c-di-GMP competition mixing experiment (ultrafilter retentates); type: binding; conditions: Scn premixed with 25-fold molar excess c-di-GMP, then equimolar Fe-ENT, washed in ultrafilter
T1 construct: made in house
Excerpt: Li and coworkers reported that c-di-GMP could compete with bacterial ferric siderophores for Scn binding, alleviating Scn blockade of bacterial iron acquisition during infection ([Li et al., 2015]). This conclusion was based on a computational inverse docking screen, isothermal titration calorimetry (ITC) binding assays, and bacterial growth assays. However, c-di-GMP is not particularly complementary in shape to the Scn calyx, and lacks elements crucial for calyx binding, though its net negative charge does complement the overall positive charge of the calyx. Also, the reported micromolar KD by ITC for the Scn/c-di-GMP interaction was orders-of-magnitude weaker than the sub-nanomolar KDs of Scn for ferric complexes of bacterial CAM-type siderophores previously determined by FQ ([Abergel et al., 2006a], [Abergel et al., 2006b], [Goetz et al., 2002], [Hoette et al., 2008], [Miethke and Skerra, 2010]). [We noted that Li and coworkers also reported a discrepant micromolar KD for the Scn/Fe-ENT interaction by ITC.] However, this conundrum was easily resolved by a simple mixing experiment not previously performed (Fig. 7C). Colorless apo-Scn protein was premixed with a 25-fold molar excess of colorless c-di-GMP, at a concentration well above the reported micromolar KD, and allowed to equilibrate. Fe-ENT, which is colored a deep red, was then added at an equimolar ratio to Scn. […]

T1 sequence (P80188 21-198): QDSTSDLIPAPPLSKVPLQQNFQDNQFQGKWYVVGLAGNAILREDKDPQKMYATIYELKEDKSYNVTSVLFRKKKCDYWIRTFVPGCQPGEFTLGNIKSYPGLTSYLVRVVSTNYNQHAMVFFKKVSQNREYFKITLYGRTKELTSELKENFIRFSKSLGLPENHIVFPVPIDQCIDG

Nc1nc2c(ncn2[C@@H]2O[C@@H]3COP(=O)(O)O[C@H]4[C@@H](O)[C@H](n5cnc6c(=O)[nH]c(N)nc65)O[C@@H]4COP(=O)(O)O[C@H]3[C@H]2O)c(=O)[nH]1 [c-di-GMP, cyclic diguanylate monophosphate]
KD by ITC (Scn [1]): micromolar
competition with Fe-ENT for Scn binding (Scn [2]): too weak to impede binding of ferric siderophores
